# Test results taken from patent publication US20210386367A1, “DEVICES AND SYSTEMS FOR GASTROINTESTINAL MICROBIOME DETECTION AND MANIPULATION” (Progenity, Inc., priority 2018, published 2021).
# “Also recorded” adds a separate entry of the source. Like-named read-outs stand apart in the source and are kept apart here.
# Assays:
# S. pyogenes ATCC 49399 = test: Time-kill assay; type: cell-based, Streptococcus pyogenes; conditions: 2×, 4×, 8× MIC; 2, 6, 24 hr
# Enterobacter aerogenes = test: Broth microdilution MIC, 50 clinical isolates; type: cell-based
# How it was run: (§1)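 CLSI broth microdilution in cation-adjusted Mueller Hinton broth, with 3% lysed horse blood added for streptococci. Two-fold dilutions, inoculum ~5×10^5 CFU/mL, 35° C for 16-24 hr in ambient air (streptococci with CO2 planchets). MIC = lowest concentration inhibiting visible growth.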
# Proteus mirabilis = test: Broth microdilution MIC, 50 clinical isolates; type: cell-based
# How it was run: as §1
# Pseudomonas aeruginosa = test: Broth microdilution MIC, 50 clinical isolates; type: cell-based
# How it was run: as §1
# [1] = Klebsiella aerogenes, read-out: MIC50
# [2] = Klebsiella aerogenes, read-out: MIC90
# [3] = Proteus mirabilis, read-out: MIC50
# [4] = Proteus mirabilis, read-out: MIC90
# [5] = Pseudomonas aeruginosa, read-out: MIC50
# [6] = Pseudomonas aeruginosa, read-out: MIC90
smiles,measurement,setting,value
CO/N=C(\C(=O)N[C@@H]1C(=O)N2C(C(=O)O)=C(CSc3nc(=O)c(=O)[nH]n3C)CS[C@H]12)c1csc(N)n1 [ceftriaxone],time-kill kinetics outcome (bactericidal = ≥3 log reduction in CFU per mL),S. pyogenes ATCC 49399,bactericidal effect at 4× and 8×MIC at 24 hr
same,% R,Enterobacter aerogenes,26%
same,% S,Enterobacter aerogenes,74%
same,MIC range,Enterobacter aerogenes,0.03 to 64 mg/L
same,Mode,Enterobacter aerogenes,0.06 µg/mL
same,Cumulative percentage of isolates inhibited at MIC,Enterobacter aerogenes; 0.03 μg/mL,6.0%
same,Number of test isolates at MIC,Enterobacter aerogenes; 0.03 μg/mL,3
same,Cumulative percentage of isolates inhibited at MIC,Enterobacter aerogenes; 0.06 μg/mL,42.0%
same,Number of test isolates at MIC,Enterobacter aerogenes; 0.06 μg/mL,18
same,Cumulative percentage of isolates inhibited at MIC,Enterobacter aerogenes; 1 μg/mL,74.0%
same,Number of test isolates at MIC,Enterobacter aerogenes; 1 μg/mL,2
same,Cumulative percentage of isolates inhibited at MIC,Enterobacter aerogenes; 8 μg/mL,78.0%
same,Number of test isolates at MIC,Enterobacter aerogenes; 8 μg/mL,2
same,Cumulative percentage of isolates inhibited at MIC,Enterobacter aerogenes; 16 μg/mL,86.0%
same,Number of test isolates at MIC,Enterobacter aerogenes; 16 μg/mL,4
same,Cumulative percentage of isolates inhibited at MIC,Enterobacter aerogenes; 32 μg/mL,94.0%
same,Number of test isolates at MIC,Enterobacter aerogenes; 32 μg/mL,4
same,Cumulative percentage of isolates inhibited at MIC,Enterobacter aerogenes; 64 μg/mL,100.0%
same,Number of test isolates at MIC,Enterobacter aerogenes; 64 μg/mL,3
same,MIC50,Enterobacter aerogenes; [1],0.12 mg/L
same,MIC90,Enterobacter aerogenes; [2],32 mg/L
same,% R,Enterobacter aerogenes; listed as CTR,26%
same,% R,Proteus mirabilis,Six
same,% S,Proteus mirabilis,94%
same,Mode,Proteus mirabilis,0.004 µg/mL
same,Cumulative percentage of isolates inhibited at MIC,Proteus mirabilis; 0.004 μg/mL,62.0%
same,Number of test isolates at MIC,Proteus mirabilis; 0.004 μg/mL,21
same,Cumulative percentage of isolates inhibited at MIC,Proteus mirabilis; 0.008 μg/mL,84.0%
same,Number of test isolates at MIC,Proteus mirabilis; 0.008 μg/mL,11
same,Cumulative percentage of isolates inhibited at MIC,Proteus mirabilis; 0.015 μg/mL,86.0%
same,Number of test isolates at MIC,Proteus mirabilis; 0.015 μg/mL,1
same,Cumulative percentage of isolates inhibited at MIC,Proteus mirabilis; 0.03 μg/mL,88.0%
same,Number of test isolates at MIC,Proteus mirabilis; 0.03 μg/mL,1
same,Cumulative percentage of isolates inhibited at MIC,Proteus mirabilis; 0.06 μg/mL,92.0%
same,Number of test isolates at MIC,Proteus mirabilis; 0.06 μg/mL,2
same,Cumulative percentage of isolates inhibited at MIC,Proteus mirabilis; 1 μg/mL,94.0%
same,Number of test isolates at MIC,Proteus mirabilis; 1 μg/mL,1
same,Cumulative percentage of isolates inhibited at MIC,Proteus mirabilis; 4 μg/mL,96.0%
same,Number of test isolates at MIC,Proteus mirabilis; 4 μg/mL,1
same,Cumulative percentage of isolates inhibited at MIC,Proteus mirabilis; 8 μg/mL,98.0%
same,Number of test isolates at MIC,Proteus mirabilis; 8 μg/mL,1
same,Cumulative percentage of isolates inhibited at MIC,Proteus mirabilis; >128 μg/mL,100.0%
same,Number of test isolates at MIC,Proteus mirabilis; >128 μg/mL,1
same,MIC50,Proteus mirabilis; [3],0.004 mg/L
same,MIC90,Proteus mirabilis; [4],0.06 mg/L
same,% R,Proteus mirabilis; listed as CTR,6%^
same,Cumulative percentage of isolates inhibited at MIC,Proteus mirabilis; ≤0.002 μg/mL,20.0%
same,Number of test isolates at MIC,Proteus mirabilis; ≤0.002 μg/mL,10
same,Cumulative percentage of isolates inhibited at MIC,Pseudomonas aeruginosa; 4 μg/mL,2.0%
same,Number of test isolates at MIC,Pseudomonas aeruginosa; 4 μg/mL,1
same,Cumulative percentage of isolates inhibited at MIC,Pseudomonas aeruginosa; 8 μg/mL,10.0%
same,Number of test isolates at MIC,Pseudomonas aeruginosa; 8 μg/mL,4
same,Cumulative percentage of isolates inhibited at MIC,Pseudomonas aeruginosa; 16 μg/mL,16.0%
same,Number of test isolates at MIC,Pseudomonas aeruginosa; 16 μg/mL,3
same,Cumulative percentage of isolates inhibited at MIC,Pseudomonas aeruginosa; 32 μg/mL,36.0%
same,Number of test isolates at MIC,Pseudomonas aeruginosa; 32 μg/mL,10
same,Cumulative percentage of isolates inhibited at MIC,Pseudomonas aeruginosa; 64 μg/mL,58.0%
same,Number of test isolates at MIC,Pseudomonas aeruginosa; 64 μg/mL,11
same,Cumulative percentage of isolates inhibited at MIC,Pseudomonas aeruginosa; 128 μg/mL,72.0%
same,Number of test isolates at MIC,Pseudomonas aeruginosa; 128 μg/mL,7
same,Cumulative percentage of isolates inhibited at MIC,Pseudomonas aeruginosa; >128 μg/mL,100.0%
same,Number of test isolates at MIC,Pseudomonas aeruginosa; >128 μg/mL,14
same,MIC50,Pseudomonas aeruginosa; [5],64 mg/L
same,MIC90,Pseudomonas aeruginosa; [6],> 128 mg/L
same,MIC90,Pseudomonas aeruginosa; listed as CTR,>128 mg/L
C[C@@H](O)[C@H]1C(=O)N2C(C(=O)O)=C(S[C@@H]3CN[C@H](C(=O)N(C)C)C3)[C@H](C)[C@H]12 [meropenem],time-kill kinetics outcome (bactericidal = ≥3 log reduction in CFU per mL),S. pyogenes ATCC 49399,bactericidal effect at 4× and 8×MIC at 24 hr
same,% I,Enterobacter aerogenes,2%
same,% S,Enterobacter aerogenes,Ninety-eight
same,MIC range,Enterobacter aerogenes,0.015 to 2 mg/L
same,Mode,Enterobacter aerogenes,0.03 µg/mL
same,relative activity among drugs tested,Enterobacter aerogenes,most active drug evaluated; also recorded: most active agent
same,Cumulative percentage of isolates inhibited at MIC,Enterobacter aerogenes; 0.015 μg/mL,36.0%
same,Number of test isolates at MIC,Enterobacter aerogenes; 0.015 μg/mL,18
same,Cumulative percentage of isolates inhibited at MIC,Enterobacter aerogenes; 0.03 μg/mL,80.0%
same,Number of test isolates at MIC,Enterobacter aerogenes; 0.03 μg/mL,22
same,Cumulative percentage of isolates inhibited at MIC,Enterobacter aerogenes; 0.06 μg/mL,94.0%
same,Number of test isolates at MIC,Enterobacter aerogenes; 0.06 μg/mL,7
same,Cumulative percentage of isolates inhibited at MIC,Enterobacter aerogenes; 1 μg/mL,98.0%
same,Number of test isolates at MIC,Enterobacter aerogenes; 1 μg/mL,1
same,Cumulative percentage of isolates inhibited at MIC,Enterobacter aerogenes; 2 μg/mL,100.0%
same,Number of test isolates at MIC,Enterobacter aerogenes; 2 μg/mL,1
same,MIC50,Enterobacter aerogenes; [1],0.03 mg/L
same,MIC90,Enterobacter aerogenes; [2],0.06 mg/L
same,Cumulative percentage of isolates inhibited at MIC,Enterobacter aerogenes; […],96.0%
same,Number of test isolates at MIC,Enterobacter aerogenes; […],1
same,% I,Enterobacter aerogenes; listed as MEM,2%
same,% S,Enterobacter aerogenes; listed as MEM,98%
same,% S,Proteus mirabilis,98%
same,MIC range,Proteus mirabilis,≤0.008 to 2 mg/L
same,Mode,Proteus mirabilis,0.06 µg/mL
same,Cumulative percentage of isolates inhibited at MIC,Proteus mirabilis; 0.03 μg/mL,38.0%
same,Number of test isolates at MIC,Proteus mirabilis; 0.03 μg/mL,18
same,Cumulative percentage of isolates inhibited at MIC,Proteus mirabilis; 0.06 μg/mL,82.0%
same,Number of test isolates at MIC,Proteus mirabilis; 0.06 μg/mL,2
same,Cumulative percentage of isolates inhibited at MIC,Proteus mirabilis; 2 μg/mL,100.0%
same,Number of test isolates at MIC,Proteus mirabilis; 2 μg/mL,1
same,MIC50,Proteus mirabilis; [3],0.06 mg/L
same,MIC90,Proteus mirabilis; [4],0.12 mg/L
same,% I,Proteus mirabilis; listed as MEM,2% ^
same,Cumulative percentage of isolates inhibited at MIC,Proteus mirabilis; ≤0.008 μg/mL,2.0%
same,Number of test isolates at MIC,Proteus mirabilis; ≤0.008 μg/mL,1
same,% I,Pseudomonas aeruginosa,10%
same,% R,Pseudomonas aeruginosa,Eighteen
same,% S,Pseudomonas aeruginosa,72%
same,Mode,Pseudomonas aeruginosa,0.25 µg/mL
same,relative activity among drugs tested,Pseudomonas aeruginosa,most active drug evaluated; also recorded: most active agent
same,Cumulative percentage of isolates inhibited at MIC,Pseudomonas aeruginosa; 0.03 μg/mL,2.0%
same,Number of test isolates at MIC,Pseudomonas aeruginosa; 0.03 μg/mL,1
same,Cumulative percentage of isolates inhibited at MIC,Pseudomonas aeruginosa; 0.06 μg/mL,6.0%
same,Number of test isolates at MIC,Pseudomonas aeruginosa; 0.06 μg/mL,2
same,Cumulative percentage of isolates inhibited at MIC,Pseudomonas aeruginosa; 0.5 μg/mL,56.0%
same,Number of test isolates at MIC,Pseudomonas aeruginosa; 0.5 μg/mL,5
same,Cumulative percentage of isolates inhibited at MIC,Pseudomonas aeruginosa; 1 μg/mL,66.0%
same,Number of test isolates at MIC,Pseudomonas aeruginosa; 1 μg/mL,5
same,Cumulative percentage of isolates inhibited at MIC,Pseudomonas aeruginosa; 2 μg/mL,72.0%
same,Number of test isolates at MIC,Pseudomonas aeruginosa; 2 μg/mL,3
same,Cumulative percentage of isolates inhibited at MIC,Pseudomonas aeruginosa; 4 μg/mL,84.0%
same,Number of test isolates at MIC,Pseudomonas aeruginosa; 4 μg/mL,6
same,Cumulative percentage of isolates inhibited at MIC,Pseudomonas aeruginosa; 8 μg/mL,92.0%
same,Number of test isolates at MIC,Pseudomonas aeruginosa; 8 μg/mL,4
same,Cumulative percentage of isolates inhibited at MIC,Pseudomonas aeruginosa; >8 μg/mL,100.0%
same,Number of test isolates at MIC,Pseudomonas aeruginosa; >8 μg/mL,4
same,MIC50,Pseudomonas aeruginosa; [5],0.5 mg/L
same,MIC90,Pseudomonas aeruginosa; [6],8 mg/L
same,% I,Pseudomonas aeruginosa; listed as MEM,10%
same,% R,Pseudomonas aeruginosa; listed as MEM,18%
CO[C@H]1/C=C/O[C@@]2(C)Oc3c(C)c(O)c4c(O)c(c5c(nc6cc(C)ccn65)c4c3C2=O)NC(=O)/C(C)=C\C=C\[C@H](C)[C@H](O)[C@@H](C)[C@@H](O)[C@@H](C)[C@H](OC(C)=O)[C@@H]1C [rifaximin],time-kill kinetics outcome (bactericidal = ≥3 log reduction in CFU per mL),S. pyogenes ATCC 49399,"bacteriostatic effect against this organism at 2×, 4×, and 8× the MIC"
same,MIC50,Enterobacter aerogenes,16 mg/L
same,MIC90,Enterobacter aerogenes,64 mg/L
same,Mode,Enterobacter aerogenes,16 µg/mL
same,Cumulative percentage of isolates inhibited at MIC,Enterobacter aerogenes; 8 μg/mL,20.0%
same,Number of test isolates at MIC,Enterobacter aerogenes; 8 μg/mL,10
same,Cumulative percentage of isolates inhibited at MIC,Enterobacter aerogenes; 16 μg/mL,64.0%
same,Number of test isolates at MIC,Enterobacter aerogenes; 16 μg/mL,22
same,Cumulative percentage of isolates inhibited at MIC,Enterobacter aerogenes; 32 μg/mL,88.0%
same,Number of test isolates at MIC,Enterobacter aerogenes; 32 μg/mL,12
same,Cumulative percentage of isolates inhibited at MIC,Enterobacter aerogenes; 64 μg/mL,98.0%
same,Number of test isolates at MIC,Enterobacter aerogenes; 64 μg/mL,5
same,Cumulative percentage of isolates inhibited at MIC,Enterobacter aerogenes; >64 μg/mL,100.0%
same,Number of test isolates at MIC,Enterobacter aerogenes; >64 μg/mL,1
same,MIC50,Proteus mirabilis,4 mg/L
same,MIC90,Proteus mirabilis,8 mg/L
same,Mode,Proteus mirabilis,4 µg/mL
same,Cumulative percentage of isolates inhibited at MIC,Proteus mirabilis; 4 μg/mL,84.0%
same,Number of test isolates at MIC,Proteus mirabilis; 4 μg/mL,42
same,Cumulative percentage of isolates inhibited at MIC,Proteus mirabilis; 8 μg/mL,96.0%
same,Number of test isolates at MIC,Proteus mirabilis; 8 μg/mL,6
same,Cumulative percentage of isolates inhibited at MIC,Proteus mirabilis; >64 μg/mL,100.0%
same,Number of test isolates at MIC,Proteus mirabilis; >64 μg/mL,2
same,MIC50,Pseudomonas aeruginosa,8 mg/L
same,MIC90,Pseudomonas aeruginosa,16 mg/L
same,Mode,Pseudomonas aeruginosa,8 µg/mL
same,Cumulative percentage of isolates inhibited at MIC,Pseudomonas aeruginosa; 4 μg/mL,16.0%
same,Number of test isolates at MIC,Pseudomonas aeruginosa; 4 μg/mL,8
same,Cumulative percentage of isolates inhibited at MIC,Pseudomonas aeruginosa; 8 μg/mL,66.0%
same,Number of test isolates at MIC,Pseudomonas aeruginosa; 8 μg/mL,25
same,Cumulative percentage of isolates inhibited at MIC,Pseudomonas aeruginosa; 16 μg/mL,94.0%
same,Number of test isolates at MIC,Pseudomonas aeruginosa; 16 μg/mL,14
same,Cumulative percentage of isolates inhibited at MIC,Pseudomonas aeruginosa; 32 μg/mL,96.0%
same,Number of test isolates at MIC,Pseudomonas aeruginosa; 32 μg/mL,1
same,Cumulative percentage of isolates inhibited at MIC,Pseudomonas aeruginosa; 64 μg/mL,98.0%
same,Number of test isolates at MIC,Pseudomonas aeruginosa; 64 μg/mL,1
same,Cumulative percentage of isolates inhibited at MIC,Pseudomonas aeruginosa; >64 μg/mL,100.0%
same,Number of test isolates at MIC,Pseudomonas aeruginosa; >64 μg/mL,1
